Legend:
Type in all cases: in vivo
Details in all cases: 50 ppm, 100 = 100% disease control, 0 = no control
Alternaria solani = experiment: Test F: tomato early blight, preventive spray on tomato seedlings
Procedure, shortened: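 Preventive test: one day after the compound spray, seedlings were inoculated with A. solani, incubated saturated at 27 °C for 48 h, then kept at 20 °C for 3 days. Test suspensions contained acetone/water 50/50 with 250 ppm PEG400 surfactant. Visual ratings run from 0 (no control) to 100 (full control).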

Phakopsora pachyrhizi = experiment: Test D: Asian soybean rust, preventive spray on soybean seedlings
Procedure, shortened: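 Compounds in acetone/water (50/50) with 250 ppm PEG400, dosed in ppm, sprayed to run-off on soybean seedlings; inoculated with P. pachyrhizi spores next day. Held 24 h at 22 °C in saturated air, then 8 days at 22 °C; visual rating of disease control, 0–100, relative to untreated controls.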

Septoria tritici = experiment: Test A: wheat leaf blotch, preventive spray on wheat seedlings
Procedure, shortened: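 Preventive test: one day after spraying seedlings to run-off (concentrations in ppm; acetone/water, 250 ppm PEG400), Septoria tritici spores applied. Scored after 48 h humid incubation at 24 °C plus 17 days at 20 °C, as percent disease control versus untreated controls (100 = full control).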

[1] = tested on: Blumeria graminis f. sp. tritici; experiment: Test C: wheat powdery mildew, preventive spray on wheat seedlings
Procedure, shortened: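 Preventive test: inoculation with spore dust came one day after spraying seedlings to run-off with ppm suspensions in acetone/water (50/50) plus 250 ppm PEG400 surfactant. Visual ratings after 8 days' incubation at 20° C give percent disease control relative to controls.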

Botrytis cinerea = experiment: Test E: tomato Botrytis, preventive spray on tomato seedlings
Procedure, shortened: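 Preventive test: seedlings sprayed to run-off with compound in acetone/water (50/50) plus 250 ppm PEG400, inoculated one day later with B. cinerea spores. Held 48 h saturated at 20° C, then 3 days at 24° C; disease control scored visually from 0 to 100 versus controls.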

[2] = tested on: Puccinia recondita f. sp. tritici; experiment: Test B: wheat leaf rust, preventive spray on wheat seedlings
Procedure, shortened: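 Preventive test: compound in acetone/water 50/50 with 250 ppm PEG400 was sprayed onto wheat seedlings one day before inoculation with leaf rust spores. After 24 h in saturated air and 7 days in a growth chamber, both at 20 °C, disease control was scored from 0 to 100 against controls.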

## COc1ccc(Nc2c(-c3ccc(C#N)cc3Cl)c(C)nn2C)c([N+](=O)[O-])c1 [compound 124]
Alternaria solani
  Test F disease control rating: 99%
Phakopsora pachyrhizi
  Test D disease control rating: 25%
Septoria tritici
  Test A disease control rating: 100%
[1]
  Test C disease control rating: 99%
Botrytis cinerea
  Test E disease control rating: 100%
[2]
  Test B disease control rating: 100%

## Cc1nn(C)c(Nc2ccc(OC(F)F)cc2[N+](=O)[O-])c1-c1ccc(F)cc1Cl [compound 28]
Alternaria solani
  Test F disease control rating: 0%
Phakopsora pachyrhizi
  Test D disease control rating: 0%
Septoria tritici
  Test A disease control rating: 91%
[1]
  Test C disease control rating: 69%
Botrytis cinerea
  Test E disease control rating: 99%
[2]
  Test B disease control rating: 68%

## CCc1nn(C)c(Nc2c(F)cc(Br)cc2[N+](=O)[O-])c1-c1ccc(F)cc1F [compound 171]
Alternaria solani
  Test F disease control rating: 88%
Phakopsora pachyrhizi
  Test D disease control rating: 0%
Septoria tritici
  Test A disease control rating: 100%
[1]
  Test C disease control rating: 99%
Botrytis cinerea
  Test E disease control rating: 97%
[2]
  Test B disease control rating: 91%

## Cc1cc(Cl)c(Nc2c(-c3ccc(F)cc3Cl)c(C)nn2C)c([N+](=O)[O-])c1 [compound 31]
Alternaria solani
  Test F disease control rating: 76%
Phakopsora pachyrhizi
  Test D disease control rating: 98%
Septoria tritici
  Test A disease control rating: 100%
[1]
  Test C disease control rating: 100%
Botrytis cinerea
  Test E disease control rating: 99%
[2]
  Test B disease control rating: 100%

## COc1ccc(Nc2c(-c3ccc(F)cc3Br)c(C)nn2C)c([N+](=O)[O-])c1 [compound 52]
Alternaria solani
  Test F disease control rating: 94%
Phakopsora pachyrhizi
  Test D disease control rating: 59%
Septoria tritici
  Test A disease control rating: 100%
[1]
  Test C disease control rating: 90%
Botrytis cinerea
  Test E disease control rating: 99%
[2]
  Test B disease control rating: 100%

## Cc1cc(Cl)c(Nc2c(-c3ccc(Cl)cc3Cl)c(C)nn2C)c([N+](=O)[O-])c1 [compound 145]
Alternaria solani
  Test F disease control rating: 24%
Phakopsora pachyrhizi
  Test D disease control rating: 0%
Septoria tritici
  Test A disease control rating: 98%
[1]
  Test C disease control rating: 52%
Botrytis cinerea
  Test E disease control rating: 85%
[2]
  Test B disease control rating: 92%

## CCc1nn(C)c(Nc2c(Cl)cccc2[N+](=O)[O-])c1-c1ccc(F)cc1F [compound 17]
Alternaria solani
  Test F disease control rating: 9%
Phakopsora pachyrhizi
  Test D disease control rating: 0%
Septoria tritici
  Test A disease control rating: 100%
[1]
  Test C disease control rating: 94%
Botrytis cinerea
  Test E disease control rating: 99%
[2]
  Test B disease control rating: 92%

## CCc1nn(C)c(Nc2c(F)cccc2[N+](=O)[O-])c1-c1c(F)cc(Cl)cc1F [compound 170]
Alternaria solani
  Test F disease control rating: 99%
Phakopsora pachyrhizi
  Test D disease control rating: 0%
Septoria tritici
  Test A disease control rating: 100%
[1]
  Test C disease control rating: 99%
Botrytis cinerea
  Test E disease control rating: 100%
[2]
  Test B disease control rating: 99%

## Cc1nn(C)c(Nc2c(Cl)cc(F)cc2[N+](=O)[O-])c1-c1c(F)cccc1Cl [compound 49]
Alternaria solani
  Test F disease control rating: 26%
Phakopsora pachyrhizi
  Test D disease control rating: 25%
Septoria tritici
  Test A disease control rating: 100%
[1]
  Test C disease control rating: 95%
Botrytis cinerea
  Test E disease control rating: 94%
[2]
  Test B disease control rating: 100%

## CCc1nn(C)c(Nc2c(Cl)cc(Br)cc2[N+](=O)[O-])c1-c1ccc(F)cc1Cl [compound 128]
Alternaria solani
  Test F disease control rating: 33%
Phakopsora pachyrhizi
  Test D disease control rating: 31%
Septoria tritici
  Test A disease control rating: 100%
[1]
  Test C disease control rating: 96%
Botrytis cinerea
  Test E disease control rating: 99%
[2]
  Test B disease control rating: 98%
